# From the kinase profiling compilation of Christmann-Franck et al. (2016)
# How the values were obtained:
# Test in all cases: radiometric filter-binding kinase assay
# [1] = target: NEK6 (human) (UniProt Q9HC98)
# [2] = target: EPHA4 (human) (UniProt P54764)
# [3] = target: INSRR (human) (UniProt P14616)
# [4] = target: BTK (human) (UniProt Q06187)
# [5] = system: RPS6KB1 (human), P23443 [T412E]
# [6] = target: MAPK9 (human) (UniProt P45984)
# [7] = target: PIM1 (human) (UniProt P11309)
# [8] = target: EPHB4 (human) (UniProt P54760)
# [9] = target: PKN2 (human) (UniProt Q16513)
# [10] = target: MYLK (human) (UniProt Q15746)
# [11] = target: MAP2K2 (human) (UniProt P36507)
# [12] = target: CDK2 CCNA2 (human) (UniProt P20248+P24941)
# [13] = target: PAK6 (human) (UniProt Q9NQU5)
# [14] = target: STK3 (human) (UniProt Q13188)
# [15] = target: TBK1 (human) (UniProt Q9UHD2)
# [16] = target: SRPK1 (human) (UniProt Q96SB4)
# [17] = target: PIM2 (human) (UniProt Q9P1W9)
# [18] = target: EEF2K (human) (UniProt O00418)
# [19] = target: DAPK1 (human) (UniProt P53355)
# [20] = target: IKBKB (human) (UniProt O14920)
# [21] = target: PIM3 (human) (UniProt Q86V86)
# [22] = target: MAP2K1 (human) (UniProt Q02750)
# [23] = target: CHEK1 (human) (UniProt O14757)
# [24] = target: CSNK2A1 (human) (UniProt P68400)
# [25] = target: GCK (human) (UniProt Q12851)
# [26] = system: PAK2 (human), Q13177 [T402E]
# [27] = target: RPS6KA5 KD1 KD2 (human) (UniProt O75582)
# [28] = target: MARK4 (human) (UniProt Q96L34); conditions: compound 10.0 µM
# [29] = target: MAP3K9 (human) (UniProt P80192)
# [30] = target: MKNK2 (human) (UniProt Q9HBH9)
# [31] = target: TTK (human) (UniProt P33981)
# [32] = target: MARK3 (human) (UniProt P27448)
# [33] = target: MAPKAPK2 (human) (UniProt P49137)
# [34] = target: YES1 (human) (UniProt P07947)
# [35] = target: MAP3K5 (human) (UniProt Q99683); conditions: compound 10.0 µM
# [36] = target: EPHB1 (human) (UniProt P54762); conditions: compound 10.0 µM
# TTK (human), sequence (P33981 whole entry, looked up): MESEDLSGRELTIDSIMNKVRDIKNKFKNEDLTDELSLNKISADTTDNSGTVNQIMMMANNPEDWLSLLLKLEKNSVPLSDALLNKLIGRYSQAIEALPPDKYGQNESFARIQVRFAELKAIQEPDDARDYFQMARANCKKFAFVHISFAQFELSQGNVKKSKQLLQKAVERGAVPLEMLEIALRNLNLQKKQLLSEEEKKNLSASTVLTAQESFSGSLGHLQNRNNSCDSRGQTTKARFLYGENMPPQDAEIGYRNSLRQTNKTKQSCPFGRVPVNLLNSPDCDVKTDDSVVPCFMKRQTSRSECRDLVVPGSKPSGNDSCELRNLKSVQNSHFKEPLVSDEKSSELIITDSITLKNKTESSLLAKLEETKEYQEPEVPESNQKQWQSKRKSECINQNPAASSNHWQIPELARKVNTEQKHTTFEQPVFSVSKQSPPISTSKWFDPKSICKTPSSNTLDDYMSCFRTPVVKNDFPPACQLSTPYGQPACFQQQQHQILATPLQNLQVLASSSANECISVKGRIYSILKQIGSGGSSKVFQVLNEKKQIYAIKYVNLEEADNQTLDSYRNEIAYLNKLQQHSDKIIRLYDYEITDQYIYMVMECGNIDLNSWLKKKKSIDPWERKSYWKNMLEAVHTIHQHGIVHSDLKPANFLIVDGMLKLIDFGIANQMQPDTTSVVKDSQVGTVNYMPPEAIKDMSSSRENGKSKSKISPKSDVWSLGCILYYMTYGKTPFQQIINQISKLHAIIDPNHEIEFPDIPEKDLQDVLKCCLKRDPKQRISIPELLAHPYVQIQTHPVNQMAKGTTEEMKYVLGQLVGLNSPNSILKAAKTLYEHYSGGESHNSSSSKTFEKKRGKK
# MAP2K2 (human), sequence (P36507 whole entry, looked up): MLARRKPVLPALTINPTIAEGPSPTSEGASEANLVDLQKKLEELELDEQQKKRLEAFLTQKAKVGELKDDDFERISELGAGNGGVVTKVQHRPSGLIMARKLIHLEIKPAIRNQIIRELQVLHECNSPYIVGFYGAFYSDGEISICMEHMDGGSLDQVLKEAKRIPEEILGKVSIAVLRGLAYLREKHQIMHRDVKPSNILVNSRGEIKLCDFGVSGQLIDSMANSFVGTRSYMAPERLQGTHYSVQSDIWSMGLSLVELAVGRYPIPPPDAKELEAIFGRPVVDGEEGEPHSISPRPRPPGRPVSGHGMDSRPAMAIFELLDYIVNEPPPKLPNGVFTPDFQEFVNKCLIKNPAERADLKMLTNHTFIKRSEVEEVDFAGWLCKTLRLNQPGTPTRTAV
# CSNK2A1 (human), sequence (P68400 whole entry, looked up): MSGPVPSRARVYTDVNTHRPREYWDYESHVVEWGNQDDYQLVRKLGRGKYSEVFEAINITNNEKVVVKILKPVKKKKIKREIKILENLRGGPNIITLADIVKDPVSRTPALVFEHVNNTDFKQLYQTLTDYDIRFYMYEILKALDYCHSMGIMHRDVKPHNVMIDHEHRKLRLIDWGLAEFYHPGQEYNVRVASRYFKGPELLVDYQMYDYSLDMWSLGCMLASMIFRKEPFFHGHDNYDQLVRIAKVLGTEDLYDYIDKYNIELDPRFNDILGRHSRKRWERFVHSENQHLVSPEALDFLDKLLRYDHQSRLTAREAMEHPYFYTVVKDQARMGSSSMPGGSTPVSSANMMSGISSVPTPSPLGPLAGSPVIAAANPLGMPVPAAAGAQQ
# INSRR (human), sequence (P14616 whole entry, looked up): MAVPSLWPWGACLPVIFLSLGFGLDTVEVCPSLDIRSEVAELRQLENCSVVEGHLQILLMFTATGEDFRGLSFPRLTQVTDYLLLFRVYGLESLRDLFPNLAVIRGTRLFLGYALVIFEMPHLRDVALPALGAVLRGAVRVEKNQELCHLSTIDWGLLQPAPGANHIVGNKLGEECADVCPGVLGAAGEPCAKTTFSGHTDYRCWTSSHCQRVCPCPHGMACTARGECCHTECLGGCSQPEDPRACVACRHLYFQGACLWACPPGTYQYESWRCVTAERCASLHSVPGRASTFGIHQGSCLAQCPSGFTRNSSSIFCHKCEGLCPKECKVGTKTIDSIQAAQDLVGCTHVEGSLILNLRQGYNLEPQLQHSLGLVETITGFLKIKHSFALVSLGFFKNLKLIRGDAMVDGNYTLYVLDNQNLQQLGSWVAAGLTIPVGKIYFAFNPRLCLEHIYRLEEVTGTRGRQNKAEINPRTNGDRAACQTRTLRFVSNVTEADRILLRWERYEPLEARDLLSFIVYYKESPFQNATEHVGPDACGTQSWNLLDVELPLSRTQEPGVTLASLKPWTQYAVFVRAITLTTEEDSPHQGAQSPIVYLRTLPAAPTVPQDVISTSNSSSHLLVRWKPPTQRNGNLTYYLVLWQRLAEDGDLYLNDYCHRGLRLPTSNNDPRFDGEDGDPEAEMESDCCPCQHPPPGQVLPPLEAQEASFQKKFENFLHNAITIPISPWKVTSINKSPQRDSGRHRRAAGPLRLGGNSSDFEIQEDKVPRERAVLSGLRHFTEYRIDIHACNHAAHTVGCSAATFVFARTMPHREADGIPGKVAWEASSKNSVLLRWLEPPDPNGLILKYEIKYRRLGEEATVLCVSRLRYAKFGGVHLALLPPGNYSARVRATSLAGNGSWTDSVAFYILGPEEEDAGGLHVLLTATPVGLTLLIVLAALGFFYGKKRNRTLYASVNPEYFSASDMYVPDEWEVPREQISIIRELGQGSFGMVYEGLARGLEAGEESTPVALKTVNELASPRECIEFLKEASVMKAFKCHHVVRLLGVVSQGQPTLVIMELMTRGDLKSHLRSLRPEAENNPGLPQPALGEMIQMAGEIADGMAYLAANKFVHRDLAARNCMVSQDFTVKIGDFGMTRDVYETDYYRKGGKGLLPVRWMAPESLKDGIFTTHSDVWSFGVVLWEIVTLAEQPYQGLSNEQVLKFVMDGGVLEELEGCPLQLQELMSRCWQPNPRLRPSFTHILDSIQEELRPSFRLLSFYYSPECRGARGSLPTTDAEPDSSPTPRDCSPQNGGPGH
# IKBKB (human), sequence (O14920 whole entry, looked up): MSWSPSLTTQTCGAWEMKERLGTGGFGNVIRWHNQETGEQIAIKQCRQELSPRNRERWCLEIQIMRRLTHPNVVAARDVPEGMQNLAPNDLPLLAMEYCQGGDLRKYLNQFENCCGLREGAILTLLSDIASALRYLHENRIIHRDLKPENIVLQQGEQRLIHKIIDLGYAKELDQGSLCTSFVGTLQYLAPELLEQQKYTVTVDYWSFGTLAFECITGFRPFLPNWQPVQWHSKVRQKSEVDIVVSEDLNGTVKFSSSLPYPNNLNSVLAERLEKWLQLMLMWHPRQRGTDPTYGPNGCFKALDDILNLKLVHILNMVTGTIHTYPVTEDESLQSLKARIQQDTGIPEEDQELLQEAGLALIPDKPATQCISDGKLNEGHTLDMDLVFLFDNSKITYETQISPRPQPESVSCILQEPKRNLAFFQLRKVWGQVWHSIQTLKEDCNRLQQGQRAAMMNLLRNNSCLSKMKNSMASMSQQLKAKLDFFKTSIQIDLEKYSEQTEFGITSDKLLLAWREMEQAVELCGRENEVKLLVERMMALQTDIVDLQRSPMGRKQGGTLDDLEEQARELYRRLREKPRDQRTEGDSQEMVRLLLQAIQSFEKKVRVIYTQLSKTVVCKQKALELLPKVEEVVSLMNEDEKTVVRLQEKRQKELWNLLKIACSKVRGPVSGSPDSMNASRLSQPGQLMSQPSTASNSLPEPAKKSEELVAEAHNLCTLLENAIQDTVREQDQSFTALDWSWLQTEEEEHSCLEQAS
# CHEK1 (human), sequence (O14757 whole entry, looked up): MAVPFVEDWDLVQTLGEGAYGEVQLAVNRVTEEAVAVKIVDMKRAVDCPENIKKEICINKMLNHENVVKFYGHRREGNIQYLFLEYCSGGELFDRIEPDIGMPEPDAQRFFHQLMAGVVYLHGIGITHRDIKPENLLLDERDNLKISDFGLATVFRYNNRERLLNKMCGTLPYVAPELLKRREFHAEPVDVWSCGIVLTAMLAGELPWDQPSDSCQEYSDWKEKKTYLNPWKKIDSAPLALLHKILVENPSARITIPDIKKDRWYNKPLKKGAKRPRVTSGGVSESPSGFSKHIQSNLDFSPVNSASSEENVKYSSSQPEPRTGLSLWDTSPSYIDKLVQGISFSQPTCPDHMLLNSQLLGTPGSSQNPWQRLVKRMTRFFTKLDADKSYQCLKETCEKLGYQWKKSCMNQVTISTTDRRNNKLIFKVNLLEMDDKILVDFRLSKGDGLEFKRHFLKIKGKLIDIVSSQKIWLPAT
# BTK (human), sequence (Q06187 whole entry, looked up): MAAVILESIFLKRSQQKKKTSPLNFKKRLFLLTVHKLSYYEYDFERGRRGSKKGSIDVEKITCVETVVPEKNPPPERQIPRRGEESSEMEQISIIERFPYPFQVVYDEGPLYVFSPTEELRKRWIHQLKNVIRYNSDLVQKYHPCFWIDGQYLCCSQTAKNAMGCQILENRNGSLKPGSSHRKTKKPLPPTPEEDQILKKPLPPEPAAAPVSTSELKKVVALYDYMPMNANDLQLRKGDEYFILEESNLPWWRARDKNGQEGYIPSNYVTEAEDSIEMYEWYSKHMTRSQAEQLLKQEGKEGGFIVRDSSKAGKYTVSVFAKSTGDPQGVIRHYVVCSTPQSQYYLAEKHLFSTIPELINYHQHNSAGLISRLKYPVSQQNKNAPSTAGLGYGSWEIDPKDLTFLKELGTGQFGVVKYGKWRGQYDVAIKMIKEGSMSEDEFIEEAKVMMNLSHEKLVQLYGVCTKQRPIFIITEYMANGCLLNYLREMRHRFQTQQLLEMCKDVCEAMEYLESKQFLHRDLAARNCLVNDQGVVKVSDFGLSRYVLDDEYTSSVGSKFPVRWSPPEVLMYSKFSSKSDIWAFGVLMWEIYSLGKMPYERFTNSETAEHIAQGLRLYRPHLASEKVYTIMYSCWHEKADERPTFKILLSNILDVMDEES
smiles,measurement,setting,value
Cc1ccc(=O)n(-c2ccccc2)c1,residual activity,[1]; compound 1.0 µM,99%
same,residual activity,[1]; compound 10.0 µM,91%
same,residual activity,[2]; compound 1.0 µM,106%
same,residual activity,[2]; compound 10.0 µM,99%
same,residual activity,[3]; compound 1.0 µM,104%
same,residual activity,[3]; compound 10.0 µM,99%
same,residual activity,[4]; compound 1.0 µM,119%
same,residual activity,[4]; compound 10.0 µM,115%
same,residual activity,[5]; compound 1.0 µM,115%
same,residual activity,[5]; compound 10.0 µM,111%
same,residual activity,[6]; compound 1.0 µM,85%
same,residual activity,[6]; compound 10.0 µM,86%
same,residual activity,[7]; compound 1.0 µM,105%
same,residual activity,[7]; compound 10.0 µM,106%
same,residual activity,[8]; compound 1.0 µM,112%
same,residual activity,[8]; compound 10.0 µM,120%
same,residual activity,[9]; compound 1.0 µM,121%
same,residual activity,[9]; compound 10.0 µM,91%
same,residual activity,[10]; compound 1.0 µM,102%
same,residual activity,[10]; compound 10.0 µM,89%
same,residual activity,[11]; compound 1.0 µM,58%
same,residual activity,[11]; compound 10.0 µM,35%
same,residual activity,[12]; compound 1.0 µM,103%
same,residual activity,[12]; compound 10.0 µM,97%
same,residual activity,[13]; compound 1.0 µM,106%
same,residual activity,[13]; compound 10.0 µM,96%
same,residual activity,[14]; compound 1.0 µM,112%
same,residual activity,[14]; compound 10.0 µM,112%
same,residual activity,[15]; compound 1.0 µM,99%
same,residual activity,[15]; compound 10.0 µM,91%
same,residual activity,[16]; compound 1.0 µM,95%
same,residual activity,[16]; compound 10.0 µM,89%
same,residual activity,[17]; compound 1.0 µM,118%
same,residual activity,[17]; compound 10.0 µM,96%
same,residual activity,[18]; compound 1.0 µM,83%
same,residual activity,[18]; compound 10.0 µM,87%
same,residual activity,[19]; compound 1.0 µM,112%
same,residual activity,[19]; compound 10.0 µM,100%
same,residual activity,[20]; compound 1.0 µM,87%
same,residual activity,[20]; compound 10.0 µM,88%
same,residual activity,[21]; compound 1.0 µM,111%
same,residual activity,[21]; compound 10.0 µM,95%
same,residual activity,[22]; compound 1.0 µM,77%
same,residual activity,[22]; compound 10.0 µM,65%
same,residual activity,[23]; compound 1.0 µM,97%
same,residual activity,[23]; compound 10.0 µM,90%
same,residual activity,[24]; compound 1.0 µM,98%
same,residual activity,[24]; compound 10.0 µM,103%
same,residual activity,[25]; compound 1.0 µM,106%
same,residual activity,[25]; compound 10.0 µM,108%
same,residual activity,[26]; compound 1.0 µM,101%
same,residual activity,[26]; compound 10.0 µM,100%
same,residual activity,[27]; compound 1.0 µM,98%
same,residual activity,[27]; compound 10.0 µM,95%
same,residual activity,[28],74%
same,residual activity,[29]; compound 1.0 µM,95%
same,residual activity,[29]; compound 10.0 µM,89%
same,residual activity,[30]; compound 1.0 µM,90%
same,residual activity,[30]; compound 10.0 µM,93%
same,residual activity,[31]; compound 1.0 µM,73%
same,residual activity,[31]; compound 10.0 µM,76%
same,residual activity,[32]; compound 1.0 µM,108%
same,residual activity,[32]; compound 10.0 µM,108%
same,residual activity,[33]; compound 1.0 µM,108%
same,residual activity,[33]; compound 10.0 µM,93%
same,residual activity,[34]; compound 1.0 µM,118%
same,residual activity,[34]; compound 10.0 µM,109%
same,residual activity,[35],99%
same,residual activity,[36],104%
